{"source": "patent US20210379589A1", "about": "“Microfluidic Chip For Analysis Of Cell Motility And Methods For Using Same” (The Johns Hopkins University, priority 2013, published 2021)", "key": {"MDA-MB-231 cells": {"test_system": "MDA-MB-231 cells", "experiment": "Microchannel migration device assay, MDA-MB-231 cells", "type": "cell-based, human", "method": "Cell seeding and live cell migration experiments: Cells were grown to continency, trypsinized, and resuspended in serum-free medium at 2×10^6 cells/ml. 50 μl of cell suspension was added to the cell inlet well. Cells were incubated in the device for 5-10 minutes at 37° C. to allow initial cell seeding at the base of “Y” channels. The cell suspension was then removed from the cell inlet port. The device was washed with DPBS before the addition of medium to the inlet ports of the device. In select experiments, PI3K activity was inhibited by the addition of 10 μM LY294002 in the medium through the entire course of migration. The migration chamber was moved to a temperature- and CO2-controlled stage-top live cell incubator (Okolab, Italy) mounted on the motorized stage of an inverted Nikon Eclipse Ti microscope (Nikon, Tokyo, Japan) with automated controls (NIS-Elements, Nikon). Migrating cells were imaged with a 10×-magnification phase contrast objective every 10 minutes for up to 16 hours. Analysis of Cell Migration: Video tiles were exported to Image1 for analysis. All cells that entered the channel were tracked while fully inside the channel and before reaching either end of the channel using the lmageJ MTrackJ plugin at 10 minute intervals. Cells were also dynamically traced with the imageJ polygon ROI capability at 30 minute intervals. Dividing cells were not tracked. Cell position data were used to calculate cell speed over each 10 minute interval, and these speeds were averaged to get an overall average speed for each cell. Additionally, the chemotactic index, defined as the cell displacement divided by the total distance travelled by the cell, was calculated. Cell shape data were used to calculate cell circularity and fit elliptical angle using the Measure function in ImageJ Statistical significance was assessed with non-paired Student's t-test. Cells were further defined as migratory or non-migratory. Migratory cells were defined as those cells which reached the bifurcation in the Y-shaped microchannel; all other cells were defined as non-migratory. […]"}, "Bt549 cells": {"test_system": "Bt549 cells", "experiment": "Microchannel migration device assay, Bt549 cells", "type": "cell-based", "details": "10 μM LY294002, 400 μm-long Y-shaped migration channels; control 32±8%", "method": "(§1) Cell seeding and live cell migration experiments: Cells were grown to continency, trypsinized, and resuspended in serum-free medium at 2×10^6 cells/ml. 50 μl of cell suspension was added to the cell inlet well. Cells were incubated in the device for 5-10 minutes at 37° C. to allow initial cell seeding at the base of “Y” channels. The cell suspension was then removed from the cell inlet port. The device was washed with DPBS before the addition of medium to the inlet ports of the device. In select experiments, PI3K activity was inhibited by the addition of 10 μM LY294002 in the medium through the entire course of migration. The migration chamber was moved to a temperature- and CO2-controlled stage-top live cell incubator (Okolab, Italy) mounted on the motorized stage of an inverted Nikon Eclipse Ti microscope (Nikon, Tokyo, Japan) with automated controls (NIS-Elements, Nikon). Migrating cells were imaged with a 10×-magnification phase contrast objective every 10 minutes for up to 16 hours. Analysis of Cell Migration: Video tiles were exported to Image1 for analysis. All cells that entered the channel were tracked while fully inside the channel and before reaching either end of the channel using the lmageJ MTrackJ plugin at 10 minute intervals. Cells were also dynamically traced with the imageJ polygon ROI capability at 30 minute intervals. Dividing cells were not tracked. […]"}, "Hs578t cells": {"test_system": "Hs578t cells", "experiment": "Microchannel migration device assay, Hs578t cells", "type": "cell-based", "details": "10 μM LY294002, 400 μm-long Y-shaped migration channels; control 20±7%", "method": "as §1"}}}
{"smiles": "O=c1cc(N2CCOCC2)oc2c(-c3ccccc3)cccc12", "note": "[LY294002]", "values": [{"measurement": "migratory cell population", "setting": "MDA-MB-231 cells; 10 μM LY294002, 200 μm-long microchannels, control 25%", "result": 65, "unit": "%"}, {"measurement": "ratio of contact guided cells", "setting": "MDA-MB-231 cells; 10 μM LY294002, 200 μm-long microchannels, control 66%", "result": 93, "unit": "%"}, {"measurement": "percentage of migratory cells", "setting": "MDA-MB-231 cells; 10 μM LY294002, 400 μm-long Y-shaped migration channels, control 22±3%", "result": "34±8", "unit": "%"}, {"measurement": "percentage of migratory cells", "setting": "Bt549 cells", "result": "19±1", "unit": "%"}, {"measurement": "percentage of migratory cells", "setting": "Hs578t cells", "result": "15±2", "unit": "%"}]}
